{"source": "patent US5373000A", "about": "“7Beta-(thiadiazolyl)-2-iminoacetamido-3cephem compounds” (Eisai Co., Ltd., priority 1985, dated 1994)", "assay_in_all_cases": "Antibacterial activities, MIC", "assay_type_in_all_cases": "cell-based", "key": {"Kleb Pneumoniae EK-6": {"test_system": "Kleb Pneumoniae EK-6"}, "Pseud. aeruginosa EP-01": {"test_system": "Pseud. aeruginosa EP-01"}, "Escher. coli NIHJ": {"test_system": "Escher. coli NIHJ"}, "Morg. morganii EP-14": {"test_system": "Morg. morganii EP-14"}, "Ser. marcescens ES-75": {"test_system": "Ser. marcescens ES-75"}, "Staph. aureus 209-P": {"test_system": "Staph. aureus 209-P"}, "[1]": {"conditions": "Pseudomonas aeruginosa, EP01, Pseud. aeruginosa EP-01, read-out: MIC"}, "[2]": {"conditions": "Escherichia coli, read-out: MIC"}, "[3]": {"conditions": "Morganella morganii, EP14, Morg. morganii EP-14, read-out: MIC"}, "[4]": {"conditions": "Serratia marcescens, ES75, read-out: MIC"}, "[5]": {"conditions": "Staphylococcus aureus, read-out: MIC"}}, "note": "Read-outs that look alike come from different tables or passages of the source.", "data": [{"molecule": "CO/N=C(\\C(=O)N[C@@H]1C(=O)N2C(C(=O)[O-])=C(/C=C/C[N+]34CCCN3CCC4)CS[C@H]12)c1nsc(N)n1", "note": "[Example 38, 7β-[2-(5-Amino-1,2,4-thiadiazol-3-yl)-(Z)-2-methoxyiminoacetamido]-3-[(E)-3-(1,5-diazabicyclo[3,3,0]octan-1-io)-1-propen-1-yl]-3-cephem-4-carboxylate]", "values": [{"measurement": "MIC", "setting": "Kleb Pneumoniae EK-6; read-out: MIC", "value": "≤ 0.025", "unit": "µg/mL"}, {"measurement": "MIC", "setting": "Pseud. aeruginosa EP-01; [1]", "value": 1.56, "unit": "µg/mL"}, {"measurement": "MIC", "setting": "Escher. coli NIHJ; [2]", "value": "≤ 0.025", "unit": "µg/mL"}, {"measurement": "MIC", "setting": "Morg. morganii EP-14; [3]", "value": 0.05, "unit": "µg/mL"}, {"measurement": "MIC", "setting": "Ser. marcescens ES-75; [4]", "value": 0.1, "unit": "µg/mL"}, {"measurement": "MIC", "setting": "Staph. aureus 209-P; [5]", "value": 0.2, "unit": "µg/mL"}]}, {"molecule": "CO/N=C(\\C(=O)N[C@@H]1C(=O)N2C(C(=O)[O-])=C(/C=C/C[N+](C)(C)[C@H](C)C(N)=O)CS[C@H]12)c1nsc(N)n1", "note": "[Example 42]", "values": [{"measurement": "MIC", "setting": "Kleb Pneumoniae EK-6; read-out: MIC", "value": "≤ 0.025", "unit": "µg/mL"}, {"measurement": "MIC", "setting": "Pseud. aeruginosa EP-01; [1]", "value": 0.8, "unit": "µg/mL"}, {"measurement": "MIC", "setting": "Escher. coli NIHJ; [2]", "value": 0.05, "unit": "µg/mL"}, {"measurement": "MIC", "setting": "Morg. morganii EP-14; [3]", "value": 0.05, "unit": "µg/mL"}, {"measurement": "MIC", "setting": "Ser. marcescens ES-75; [4]", "value": 0.1, "unit": "µg/mL"}, {"measurement": "MIC", "setting": "Staph. aureus 209-P; [5]", "value": 0.2, "unit": "µg/mL"}]}, {"molecule": "CO/N=C(\\C(=O)N[C@@H]1C(=O)N2C(C(=O)[O-])=C(/C=C/C[N+](C)(C)Cc3cc[nH]n3)CS[C@H]12)c1nsc(N)n1", "note": "[Example 24, 7β-[2-(5-Amino-1,2,4-thiadiazol-3-yl)-(Z)-2-methoxyiminoacetamido]-3-[(E)-3-[(pyrazol-3-yl)methyldimethylammonio]-1-propen-1-yl]-3-cephem-4-carboxylate]", "values": [{"measurement": "MIC", "setting": "Kleb Pneumoniae EK-6; read-out: MIC", "value": "≤ 0.025", "unit": "µg/mL"}, {"measurement": "MIC", "setting": "Pseud. aeruginosa EP-01; [1]", "value": 3.13, "unit": "µg/mL"}, {"measurement": "MIC", "setting": "Escher. coli NIHJ; [2]", "value": "≤ 0.025", "unit": "µg/mL"}, {"measurement": "MIC", "setting": "Morg. morganii EP-14; [3]", "value": 0.05, "unit": "µg/mL"}, {"measurement": "MIC", "setting": "Ser. marcescens ES-75; [4]", "value": 0.1, "unit": "µg/mL"}, {"measurement": "MIC", "setting": "Staph. aureus 209-P; [5]", "value": 0.2, "unit": "µg/mL"}]}, {"molecule": "CO/N=C(\\C(=O)N[C@@H]1C(=O)N2C(C(=O)[O-])=C(/C=C/C[N+]3(CCO)CCC(C(N)=O)CC3)CS[C@H]12)c1nsc(N)n1", "note": "(stereo partly drawn) [Example 44-2]", "values": [{"measurement": "MIC", "setting": "Kleb Pneumoniae EK-6", "value": "≤ 0.025", "unit": "µg/mL"}, {"measurement": "MIC", "setting": "Pseud. aeruginosa EP-01; Pseud. aeruginosa EP-01", "value": 0.8, "unit": "µg/mL"}, {"measurement": "MIC", "setting": "Escher. coli NIHJ", "value": "≤ 0.025", "unit": "µg/mL"}, {"measurement": "MIC", "setting": "Morg. morganii EP-14; Morg. morganii EP-14", "value": "≤ 0.025", "unit": "µg/mL"}, {"measurement": "MIC", "setting": "Ser. marcescens ES-75", "value": 0.05, "unit": "µg/mL"}, {"measurement": "MIC", "setting": "Staph. aureus 209-P", "value": 0.4, "unit": "µg/mL"}]}, {"molecule": "CO/N=C(\\C(=O)N[C@@H]1C(=O)N2C(C(=O)[O-])=C(/C=C/C[N+]3(C)CCC[C@H]3CO)CS[C@H]12)c1nsc(N)n1", "note": "(stereo partly drawn) [Example 3, 7β-[2-(5-Amino-1,2,4-thiadiazol-3-yl)-(Z)-2-methoxyiminoacetamido]-3-[(E)-3-((2S)-2-hydroxymethyl-1-methylpyrrolidinio)-1-propen-1-yl]-3-cephem-4-carboxylate]", "values": [{"measurement": "MIC", "setting": "Kleb Pneumoniae EK-6; read-out: MIC", "value": "≤ 0.025", "unit": "µg/mL"}, {"measurement": "MIC", "setting": "Pseud. aeruginosa EP-01; [1]", "value": 1.56, "unit": "µg/mL"}, {"measurement": "MIC", "setting": "Escher. coli NIHJ; [2]", "value": 0.05, "unit": "µg/mL"}, {"measurement": "MIC", "setting": "Morg. morganii EP-14; [3]", "value": 0.05, "unit": "µg/mL"}, {"measurement": "MIC", "setting": "Ser. marcescens ES-75; [4]", "value": 0.1, "unit": "µg/mL"}, {"measurement": "MIC", "setting": "Staph. aureus 209-P; [5]", "value": 0.2, "unit": "µg/mL"}]}, {"molecule": "CO/N=C(\\C(=O)N[C@@H]1C(=O)N2C(C(=O)[O-])=C(/C=C/C[N+]3(C)CCCN3C)CS[C@H]12)c1nsc(N)n1", "note": "(single isomer, unassigned) [Example 30-A, 7β-[2-(5-Amino-1,2,4-thiadiazol-3-yl)-(Z)-2-methoxyiminoacetamido]-3-[(E)-(1,2-dimethyl-1-pirazolydinio)-1-propen-1-yl]-3-cephem-4-carboxylate]", "values": [{"measurement": "MIC", "setting": "Kleb Pneumoniae EK-6; read-out: MIC", "value": "≤ 0.025", "unit": "µg/mL"}, {"measurement": "MIC", "setting": "Pseud. aeruginosa EP-01; [1]", "value": 0.4, "unit": "µg/mL"}, {"measurement": "MIC", "setting": "Escher. coli NIHJ; [2]", "value": "≤ 0.025", "unit": "µg/mL"}, {"measurement": "MIC", "setting": "Morg. morganii EP-14; [3]", "value": "≤ 0.025", "unit": "µg/mL"}, {"measurement": "MIC", "setting": "Ser. marcescens ES-75; [4]", "value": 0.05, "unit": "µg/mL"}, {"measurement": "MIC", "setting": "Staph. aureus 209-P; [5]", "value": 0.1, "unit": "µg/mL"}]}, {"molecule": "CO/N=C(\\C(=O)N[C@@H]1C(=O)N2C(C(=O)[O-])=C(/C=C/C[N+]34CCN(CC3)CC4)CS[C@H]12)c1nsc(N)n1", "note": "[Example 32, 7β-[2-(5-Amino-1,2,4-thiadiazol-3-yl)-(Z)-2-methoxyiminoacetamido]-3-[(E)-3-(1,4-diazabicyclo[2,2,2]octan-1-io)-1-propen-1-yl]-3-cephem-4-carboxylate]", "values": [{"measurement": "MIC", "setting": "Kleb Pneumoniae EK-6; read-out: MIC", "value": "≤ 0.025", "unit": "µg/mL"}, {"measurement": "MIC", "setting": "Pseud. aeruginosa EP-01; [1]", "value": 0.8, "unit": "µg/mL"}, {"measurement": "MIC", "setting": "Escher. coli NIHJ; [2]", "value": "≤ 0.025", "unit": "µg/mL"}, {"measurement": "MIC", "setting": "Morg. morganii EP-14; [3]", "value": 0.05, "unit": "µg/mL"}, {"measurement": "MIC", "setting": "Ser. marcescens ES-75; [4]", "value": 0.1, "unit": "µg/mL"}, {"measurement": "MIC", "setting": "Staph. aureus 209-P; [5]", "value": 0.2, "unit": "µg/mL"}]}, {"molecule": "CO/N=C(\\C(=O)N[C@@H]1C(=O)N2C(C(=O)[O-])=C(/C=C/C[N+](C)(C)CCO)CS[C@H]12)c1nsc(N)n1", "note": "[Example 18-A, 7β-[2-(5-Amino-1,2,4-thiadiazol-3-yl)-(Z)-2-methoxyiminoacetamido]-3-[(E)-3-(2-hydroxyethyldimethylammonio)-1-propen-1-yl]-3-cephem-4-carboxylate]", "values": [{"measurement": "MIC", "setting": "Kleb Pneumoniae EK-6; read-out: MIC", "value": "≤ 0.025", "unit": "µg/mL"}, {"measurement": "MIC", "setting": "Pseud. aeruginosa EP-01; [1]", "value": 0.8, "unit": "µg/mL"}, {"measurement": "MIC", "setting": "Escher. coli NIHJ; [2]", "value": "≤ 0.025", "unit": "µg/mL"}, {"measurement": "MIC", "setting": "Morg. morganii EP-14; [3]", "value": 0.05, "unit": "µg/mL"}, {"measurement": "MIC", "setting": "Ser. marcescens ES-75; [4]", "value": 0.1, "unit": "µg/mL"}, {"measurement": "MIC", "setting": "Staph. aureus 209-P; [5]", "value": 0.2, "unit": "µg/mL"}]}, {"molecule": "CO/N=C(\\C(=O)N[C@@H]1C(=O)N2C(C(=O)[O-])=C(/C=C/C[N+]3(C)CC=CC3)CS[C@H]12)c1nsc(N)n1", "note": "[Example 2, 7β-[2-(5-Amino-1,2,4-thiadiazol-3-yl)-(Z)-2-methoxyiminoacetamido]-3-[(E)-3-(1-methyl-3-pyrrolinio)-1-propene-1-yl)-3-cephem-4-carboxylate]", "values": [{"measurement": "MIC", "setting": "Kleb Pneumoniae EK-6; read-out: MIC", "value": "≤ 0.025", "unit": "µg/mL"}, {"measurement": "MIC", "setting": "Pseud. aeruginosa EP-01; [1]", "value": 1.56, "unit": "µg/mL"}, {"measurement": "MIC", "setting": "Escher. coli NIHJ; [2]", "value": 0.05, "unit": "µg/mL"}, {"measurement": "MIC", "setting": "Morg. morganii EP-14; [3]", "value": 0.05, "unit": "µg/mL"}, {"measurement": "MIC", "setting": "Ser. marcescens ES-75; [4]", "value": 0.1, "unit": "µg/mL"}, {"measurement": "MIC", "setting": "Staph. aureus 209-P; [5]", "value": 0.2, "unit": "µg/mL"}]}, {"molecule": "CO/N=C(\\C(=O)N[C@@H]1C(=O)N2C(C(=O)[O-])=C(/C=C/C[N+](C)(C)Cc3ncon3)CS[C@H]12)c1nsc(N)n1", "note": "[Example 21]", "values": [{"measurement": "MIC", "setting": "Kleb Pneumoniae EK-6; read-out: MIC", "value": "≤ 0.025", "unit": "µg/mL"}, {"measurement": "MIC", "setting": "Pseud. aeruginosa EP-01; [1]", "value": 1.56, "unit": "µg/mL"}, {"measurement": "MIC", "setting": "Escher. coli NIHJ; [2]", "value": "≤ 0.025", "unit": "µg/mL"}, {"measurement": "MIC", "setting": "Morg. morganii EP-14; [3]", "value": "≤ 0.025", "unit": "µg/mL"}, {"measurement": "MIC", "setting": "Ser. marcescens ES-75; [4]", "value": 0.05, "unit": "µg/mL"}, {"measurement": "MIC", "setting": "Staph. aureus 209-P; [5]", "value": 0.2, "unit": "µg/mL"}]}, {"molecule": "CO/N=C(\\C(=O)N[C@@H]1C(=O)N2C(C(=O)[O-])=C(/C=C/C[N+]3(C)CC(O)CC3CO)CS[C@H]12)c1nsc(N)n1", "note": "(stereo partly drawn) [Example 43]", "values": [{"measurement": "MIC", "setting": "Kleb Pneumoniae EK-6; read-out: MIC", "value": "≤ 0.025", "unit": "µg/mL"}, {"measurement": "MIC", "setting": "Pseud. aeruginosa EP-01; [1]", "value": 1.56, "unit": "µg/mL"}, {"measurement": "MIC", "setting": "Escher. coli NIHJ; [2]", "value": 0.05, "unit": "µg/mL"}, {"measurement": "MIC", "setting": "Morg. morganii EP-14; [3]", "value": "≤ 0.025", "unit": "µg/mL"}, {"measurement": "MIC", "setting": "Ser. marcescens ES-75; [4]", "value": 0.05, "unit": "µg/mL"}, {"measurement": "MIC", "setting": "Staph. aureus 209-P; [5]", "value": 0.4, "unit": "µg/mL"}]}]}
